“And” between values parts separate entries of the source, which are not always exact repeats. Identical values can stand only once.
How the values were obtained:
[1] = test system: HCAEC; test: Release of CAM-specific EMP from TNF-α-activated HCAEC, two-color flow cytometry with TruCount beads; format: cell-based, human; conditions: 24 hours
Protocol: HCAECs were purchased from Cambrex Bio Science (Walkersville, Md.) and cultured according to the supplier's specifications. All experiments were performed on confluent cells. EC were treated with 10 ng/mL TNF-α alone or with the addition of fluvatstain (0.1 μmol/mL) or ROK inhibitor, Y-27632 (10 μmol M/L). Controls were un-treated. After 24 hours culture supernatants from flasks containing HCAEC were collected and centrifuged for 30 min at 17,570×g, (4° C.). Pellets were re-suspended in 1 mL of PBS and were analyzed on the same day. For single platform method, 3 μL each of FITC-conjugated and PE-conjugated monoclonal antibodies against the above mentioned CAMs plus 50 μL of re-suspended pellet were added to tubes (two antibodies/tube) preloaded with fluorescent TruCount™ bead lyophilized pellets (Becton Dickinson Biosciences, San Jose, Calif.). Tubes were incubated for 20 min at room temperature. Analysis of EMPs was performed using a FACScan Flow Cytometer (Becton Dickinson Biosciences, San Jose, Calif.). The EMPs were excited with 488 nm light from a 15 mW argon laser. Logarithmic green and red fluorescences of FITC and PE were measured through 530/30 nm and 585/42 nm bandpass filters, respectively. Data from 2,000 events were acquired and analyzed with the use of CELLQuest™ software (version 3.3, Becton Dickinson). The absolute number of EMPs was calculated from the appropriate dot plot values entered into the following formula: [formula] The total number of beads per tube is supplied by the manufacturer and varies among lot numbers. RhoA Activity Statistical analysis was performed using SPSS 10.0.7 statistical software (SPSS Inc., Chicago, Ill.). Values are stated as mean±SEM. One-way ANOVA was used to compare means from three or more groups. In cases where the data were not normally distributed, the Mann-Whitney rank sum test was used. A value of p<0.05 was considered as significant for all tests.

[2] = test system: RhoA; test: RhoA activity pull-down assay (Rhotekin Rho Binding Domain agarose, western blot) in HCAEC; format: cell-based, human; conditions: TNF-α 10 ng/mL, 24 hours
Protocol: HCAECs were purchased from Cambrex Bio Science (Walkersville, Md.) and cultured according to the supplier's specifications. All experiments were performed on confluent cells. EC were treated with 10 ng/mL TNF-α alone or with the addition of fluvatstain (0.1 μmol/mL) or ROK inhibitor, Y-27632 (10 μmol M/L). Controls were un-treated. After 24 hours culture supernatants from flasks containing HCAEC were collected and centrifuged for 30 min at 17,570×g, (4° C.). Pellets were re-suspended in 1 mL of PBS and were analyzed on the same day. RhoA activity was determined by a pull-down assay. The cell lysates were incubated with Rhotekin Rho Binding Domain agarose for 45 minutes. The agarose beads were collected and electrophoresed in 8-16% SDS-PAGE gel (Cambrex, Rockland, Me.). GDP and GTP-labeling of cell lysates served as negative and positive controls, respectively. Western blotting was performed with RhoA antibody at a dilution of 1:200. The blot densities were analyzed with Mocha Image Analysis (version 1.2.10).

[3] = HCAEC, TNF-α 10 ng/mL plus Fluvastatin 0.1 μM/L, mean ± SEM
[4] = HCAEC, TNF-α 10 ng/mL plus Fluvastatin 0.1 μM/L, mean ± SEM, listed as Flu
[5] = HCAEC, TNF-α 10 ng/mL plus Y-27632 (10 μmol M/L), mean ± SEM
[6] = HCAEC, TNF-α 10 ng/mL alone, mean ± SEM, six experiments
[7] = HCAEC, TNF-α 10 ng/mL, versus control, not significant

Compound: CC(C)n1c(/C=C/C(O)CC(O)CC(=O)O)c(-c2ccc(F)cc2)c2ccccc21 (centres unmarked) [Fluvastatin]
- absolute count of EMP, CD51 (Vitronectin) [1, 3]: 43 ±7.3 ×10^6/mL
- absolute count of EMP, CD62E (ELAM) [1, 3]: 80 ± 7 ×10^6/mL
- absolute count of EMP, CD105 (Endoglin) [1, 3]: 45±7.6 ×10^6/mL
- absolute count of EMP, CD31 (PECAM-1) [1, 4]: 231 ± 80 ×10^6/mL
- absolute count of EMP, CD51 (Vitronectin) [1, 4]: 43 ± 7 ×10^6/mL
- absolute count of EMP, CD 54 (ICAM-1) [1, 4]: 125 ± 35 ×10^6/mL
- absolute count of EMP, CD105 (Endoglin) [1, 4]: 45 ± 8 ×10^6/mL
- absolute count of EMP, CD106 (VCAM-1) [1, 4]: 167 ± 45 ×10^6/mL
- suppression of CD62+ EMP ([1]; TNF-α-activated HCAEC, versus TNF-α alone, not statistically significant): 19%

Compound: C[C@@H](N)[C@H]1CC[C@H](C(=O)Nc2ccncc2)CC1 [Y-27632]
- absolute count of EMP, CD51 (Vitronectin) [1, 5]: 44 ± 10 ×10^6/mL
- absolute count of EMP, CD62E (ELAM) [1, 5]: 65 ± 13 ×10^6/mL
- absolute count of EMP, CD105 (Endoglin) [1, 5]: 56±13 ×10^6/mL

Compound: tumor necrosis factor-α [TNF-α]
- RhoA activation [2]: induced
- absolute count of EMP, CD31 (PECAM-1) [1, 6]: 233±77 ×10^6/mL
- absolute count of EMP, CD51 (Vitronectin) [1, 6]: 76.4±46 ×10^6/mL and 76 ± 46 ×10^6/mL
- absolute count of EMP, CD 54 (ICAM-1) [1, 6]: 129 ± 44 ×10^6/mL
- absolute count of EMP, CD62E (ELAM) [1, 6]: 99 ± 3 ×10^6/mL
- absolute count of EMP, CD105 (Endoglin) [1, 6]: 124±34 ×10^6/mL
- increase of CD54 positive EMP [1, 7]: 57%
- increase of CD62 positive EMP [1, 7]: 15%

— US20050272098A1, “Quantitation of endothelial microparticles” (priority 2004, published 2005)
